Measured values reported in patent US5386030A, “Antiviral (phosphonomethoxy)methoxy purine/pyrimidine derivatives” (Institute of Organic Chemistry and Biochemistry of the …, priority 1993, dated 1995).
Values after ≈ are worked out from the molar mass of the structure shown. Counter-ions that a name gives are not always drawn. Like-named read-outs stand apart in the source and are kept apart here.

Assays:
HSV-2 = experiment: plaque reduction assay, HSV-2 (vero cells); assay type: cell-based, herpes simplex virus II; details: for IC50: 48 h
Description: (§1) Herpes simplex virus (HSV) strains were grown and titered at 37° C. in vero cells (African Green Monkey Kidney cells) and used for virus work before the tenth passage.
(§2) Cells were grown and maintained in Earle's Minimum Essential Medium (EMEM), Gibco Laboratories, supplemented with 0.75% sodium bicarbonate, 2 mM 1-glutamine, Pen-strep. and 5-10% fetal calf serum.
(§3) The titer of HSV strains is determined by a plaque titration method (Roizman and Roane, Virology, 115: 75-79, 1961). Tissue culture 24-well petri dishes are seeded with cells and used for assays when approximately 75% monolayer. Volumes (0.1 ml) of logarithmic dilutions of the virus strain are inoculated onto each of triplicate wells, and absorbed for one hour with intermittent shaking. The inoculum thereafter is removed, and 1 ml of 5-10% EMEM containing 0.3% human immune serum globulin is added. After a 48 hour incubation period at 37° C. in a 5% CO2 atmosphere, the overlay medium is removed and the cell sheets stained with Giemsa stain. The number of plaques is counted, the triplicate is averaged, and the number of plaque-forming units per ml is calculated.
(§4) The compounds are tested for activity against the herpes simplex stains using a stock solution of each compound freshly prepared. Appropriate dilution of each compound are made in 10% EMEM before usage. The antiviral efficacy of each compound is determined using the plaque reduction assay described above. Briefly, tissue culture 24-well plates, with approximately 50 plaque forming units of HSV per 0.1 ml, and the virus absorbed for 1 hour, with intermittent shaking. After removal of the inoculum, 1 ml of 10% EMEM containing two-fold dilutions of the appropriate drug are added in triplicates. Triplicate wells/plate receives no drug and are used as a virus control. After a 48-hour incubation period, at 37° C. in a 5% CO2 atmosphere, the overlay medium is removed, the cells are stained as described above, and plaques are counted. The counts of triplicate wells are averaged, and the number of plaques in the presence of each drug dilution are calculated.
(§5) The antiviral potency of the drug is determined by ID50, the drug concentration necessary to reduce the number of plaques by 50% of those in the virus control cultures.

HCMV = experiment: plaque reduction assay, HCMV strain AD169 (MRC-5 cells); assay type: cell-based, Human cytomegalovirus (strain AD169); details: for IC50: read-out: ID50 HCMV
Description: as §4
Human cytomegalovirus (HCMV) (strain AD169) was grown and titered at 37° C. in human embryonic lung (diploid) cells, MRC-5. The activity of compounds against HCMV was determined by using the procedure for the plaque reduction assay described above.
as §5

MuLV = experiment: UV-XC plaque assay, MuLV (SC-1 cells); assay type: cell-based, murine leukemia virus; details: for IC50: Murine leukemia virus
Description: The compounds were evaluated for antiviral activity against murine leukemia virus (MuLV) strains using the UV-XC plaque assay (Rowe, et al., Virology, 42: 1136, 1970).
The MuLV strains were grown in feral mouse cells (SC-1) and used for antiviral tests using the UV-XC plaque assay. Briefly, SC-1 cells are grown as monolayers in 4-well tissue culture plates and inoculated with approximately 50-100 plaque forming units of MuLV in 0.5 ml of 5% EMEM containing 20 μg/ml DEAE/Dextran. After 1 hour adsorption, the inoculum is removed and 5 ml of 5% EMEM containing three-fold dilutions of the appropriate drug are added. Five days later, the cultures are UV-irradiated with an ultraviolet lamp and rat XC sarcoma cells are added to the cultures. Three-four days after UV-irradiation, the cell cultures are stained with Giemsa stain and the plaques are enumerated. Antiviral activity is expressed in terms of the reduction in the mean number of UV-XC plaques counted in the drug treated, virus-infected cultures compared with mean number of plaques counted in untreated, virus-infected control cultures.
as §5

HSV-1 = experiment: plaque reduction assay, HSV-1 (vero cells); assay type: cell-based, herpes simplex virus I; details: for IC50: 48 h, read-out: ID50 HSV-1
Description: as §1, §2, §3
as §4, with “calculated. […]” for “calculated.”

herpes simples virus-2 = experiment: survival of mice inoculated with herpes simplex virus-2; assay type: in vivo
Description: A preferred example of one of these compounds, known as (S)-HPMPA (Formula V) was disclosed by DeClercq, et al., in Nature, 323: 464-467 (1986) and earlier by Holy, et al, Nucleic Acids Research, Symposium Series No. 14, pp. 277-278 (1984). Phosphonate compounds which are HPMPA analogs are described in South African Patent 1987/8607. […] In a 21 day protocol 30% of a group of animals treated i.p. with 50 mg/kg/day of (S)-HPMPA survived. [drawing 5]

[1] = Human alphaherpesvirus 2, Table 2, drug concentration reducing plaques by 50%, vero cells, read-out: ID50 HSV-2
[2] = Human betaherpesvirus 5, MRC5, 48 h, Table 2, strain AD169, MRC-5 cells
[3] = SC1, Table 2, UV-XC plaque assay, SC-1 cells, read-out: ID50 MULV

## Nc1ncnc2c1ncn2OC(CO)OCP(=O)(O)O (centres unmarked) [Compound 21, ammonium salt]
HSV-2; [1]
  IC50: 2.6 µg/mL
HCMV; [2]
  IC50: 1 µg/mL
HCMV; compared with DHPG
  HCMV activity (in words): comparable to DHPG
MuLV; [3]
  IC50: 1.5 µg/mL

## Nc1nc2c(ncn2COCCO)c(=O)[nH]1 [ACV, acyclovir, reference compound]
HSV-1; Human alphaherpesvirus 1, Table 1, drug concentration reducing plaques by 50%, vero cells
  IC50: 0.6 µg/mL (≈ 2.66 µM)
HSV-2; Human alphaherpesvirus 2, Table 1, drug concentration reducing plaques by 50%, vero cells, read-out: ID50 HSV2
  IC50: 0.7 µg/mL (≈ 3.11 µM)
HSV-2; [1]
  IC50: 0.35 µg/mL (≈ 1.55 µM)
HCMV; Human betaherpesvirus 5, MRC5, 48 h, Table 1, strain AD169, MRC-5 cells
  IC50: 40 µg/mL (≈ 178 µM)
MuLV; [3]
  IC50: > 100 µg/mL

## N.Nc1ncnc2c1ncn2OCOCP(=O)(O)O [Compound 4, 9-[(Phosphonomethoxy)methoxy]adenine ammonium salt]
HSV-2
  HSV-2 activity (in words): little activity
HSV-2; Human alphaherpesvirus 2, Vero, read-out: ID50 against HSV-2
  IC50: > 100 µg/mL
MuLV
  activity against MuLV (in words): good activity
MuLV; SC-1, read-out: ID50 against MuLV
  IC50: 1.5 µg/mL

## Nc1nc2c(ncn2COC(CO)CO)c(=O)[nH]1 [DHPG, reference compound]
HSV-2; [1]
  IC50: 0.2 µg/mL (≈ 0.784 µM)
HCMV; [2]
  IC50: 0.4 µg/mL (≈ 1.57 µM)
MuLV; [3]
  IC50: > 100 µg/mL

## Nc1ncnc2c1ncn2C[C@@H](CO)OCP(=O)(O)O [(S)-HPMPA]
Herpes simples virus-2; HSV-2, i.p., 50 mg/kg/day, 21 day protocol
  animals survived: 30%
Herpes simples virus-2; HSV-2, in applicant's hands
  activity in mice inoculated with herpes simplex virus-2 (in words): only slightly active

## N.Nc1nc2c(ncn2OCOCP(=O)(O)O)c(=O)[nH]1 [Compound 14, 9-[(Phosphonomethoxy)methoxy]guanine ammonium salt]
HSV-1; Human alphaherpesvirus 1, Vero
  IC50: 2.2 µg/mL
HSV-1; compared with ACV
  HSV-1 activity (in words): comparable to acyclovir (ACV)
HSV-2
  HSV-2 activity (in words): comparable to acyclovir (ACV)
HSV-2; Human alphaherpesvirus 2, Vero, read-out: ID50 HSV2
  IC50: 1.3 µg/mL
HCMV; Human betaherpesvirus 5, AD169, MRC5, 48 h
  IC50: 0.2 µg/mL
